In patent publication US20170210751A1, “PRMT5 INHIBITORS AND USES THEREOF” (Epizyme, Inc., priority 2014, published 2017):

target: T1, PRMT5/MEP50 (Homo sapiens, UniProt O14744); experiment: PRMT5 Biochemical Assay (PRMT5/MEP50 enzyme assay on peptide substrate, 3H-SAM Flashplate); conditions: PRMT5/MEP50 4 nM, 3H-SAM 75 nM, peptide 40 nM, 30 min preincubation at 25 degrees Celsius
T1 construct: Flag-PRMT5; made in house; host or cells: Spodoptera frugiperda (SF9) insect cells, baculovirus (pDEST8)
T1 sequence (O14744 with tags, fused parts or gaps): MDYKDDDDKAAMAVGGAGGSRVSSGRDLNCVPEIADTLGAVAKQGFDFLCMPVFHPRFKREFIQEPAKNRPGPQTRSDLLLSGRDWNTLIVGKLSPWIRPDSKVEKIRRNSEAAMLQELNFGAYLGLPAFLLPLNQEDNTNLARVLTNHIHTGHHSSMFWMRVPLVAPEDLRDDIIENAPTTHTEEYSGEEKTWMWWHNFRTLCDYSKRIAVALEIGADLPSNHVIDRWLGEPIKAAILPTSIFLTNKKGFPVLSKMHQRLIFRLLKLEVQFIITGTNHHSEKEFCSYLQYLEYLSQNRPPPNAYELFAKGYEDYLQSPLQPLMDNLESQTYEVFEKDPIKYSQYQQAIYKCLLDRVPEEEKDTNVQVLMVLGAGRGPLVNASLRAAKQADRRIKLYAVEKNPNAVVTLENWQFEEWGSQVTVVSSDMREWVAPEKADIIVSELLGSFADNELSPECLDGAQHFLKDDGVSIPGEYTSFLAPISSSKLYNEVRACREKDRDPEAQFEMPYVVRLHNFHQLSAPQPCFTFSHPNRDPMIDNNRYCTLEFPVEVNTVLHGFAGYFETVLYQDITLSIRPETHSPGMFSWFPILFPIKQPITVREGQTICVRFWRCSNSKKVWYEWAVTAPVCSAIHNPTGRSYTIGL
T1 sequence (Q9BQA1 with tags, fused parts or gaps partner limits assumed): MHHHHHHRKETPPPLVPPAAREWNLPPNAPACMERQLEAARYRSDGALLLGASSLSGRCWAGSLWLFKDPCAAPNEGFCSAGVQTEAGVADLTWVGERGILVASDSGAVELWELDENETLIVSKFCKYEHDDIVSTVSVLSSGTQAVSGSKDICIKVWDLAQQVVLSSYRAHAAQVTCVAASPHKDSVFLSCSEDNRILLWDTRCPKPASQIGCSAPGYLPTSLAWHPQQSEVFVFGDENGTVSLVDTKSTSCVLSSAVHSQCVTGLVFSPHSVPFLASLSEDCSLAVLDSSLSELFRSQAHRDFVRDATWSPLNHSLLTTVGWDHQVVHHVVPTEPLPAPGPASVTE
How it was run: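 FLAG-PRMT5/His-MEP50 from Sf9 cells (4 nM) preincubated 30 min at 25 °C with compounds, then reacted with 75 nM 3H-SAM and 40 nM biotinylated histone H4 1-15 peptide in Bicine pH 7.6, 1% DMSO. Stopped with 600 uM cold SAM; streptavidin Flashplate capture, scintillation counts; % inhibition fitted to 3- or 4-parameter curve.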

CC(=O)N1CC(Nc2cc(C(=O)NC[C@H](O)CN3CCc4ncccc4C3)ncn2)C1 [Compound 2-9, (S)-6-((1-acetylazetidin-3-yl)amino)-N-(3-(7,8-dihydro-1,6-naphthyridin-6(5H)-yl)-2-hydroxypropyl)pyrimidine-4-carboxamide] and CC(=O)N1CC(Nc2cc(C(=O)NC[C@H](O)CN3CCc4cccnc4C3)ncn2)C1 [Compound 2-13] fall in the same range of IC50: 0.101 to 1 µM for the first, 0.101 to 1 µM for the second.

Compared with CC(=O)N1CCC(Nc2cc(C(=O)NC[C@H](O)CN3CCc4cccnc4C3)ncn2)CC1 [Compound 2-11, (S)-6-((1-acetylpiperidin-4-yl)amino)-N-(3-(5,6-dihydro-1,7-naphthyridin-7(8H)-yl)-2-hydroxypropyl)pyrimidine-4-carboxamide], CC(=O)N1CCC(Nc2cc(C(=O)NC[C@H](O)CN3CCc4ncccc4C3)ncn2)CC1 [Compound 2-14, (S)-6-((1-acetylpiperidin-4-yl)amino)-N-(3-(7,8-dihydro-1,6-naphthyridin-6(5H)-yl)-2-hydroxypropyl)pyrimidine-4-carboxamide] is lower in IC50: 0.101 to 1 µM for the first, less than 0.1 µM for the second. The second is the more potent here.

First: O=C(NC[C@H](O)CN1CCc2ncccc2C1)c1cc(NC2COC2)ncn1 [Compound 2-12, (S)—N-(3-(7,8-dihydro-1,6-naphthyridin-6(5H)-yl)-2-hydroxypropyl)-6-(oxetan-3-ylamino)pyrimidine-4-carboxamide]
Second: O=C(NC[C@H](O)CN1CCc2cnccc2C1)c1cc(NC2COC2)ncn1 [Compound 2-15]
The IC50 of the first is lower: 0.101 to 1 µM for the first, 1 to 10 µM for the second.

First: CC(=O)N1CC(Nc2cc(C(=O)NC[C@H](O)CN3CCc4cnccc4C3)ncn2)C1 [Compound 2-16]
Second: CC(=O)N1CC(Nc2cc(C(=O)NC[C@H](O)CN3CCc4ccncc4C3)ncn2)C1 [Compound 2-22]
The IC50 of the first is lower: 0.101 to 1 µM for the first, 1 to 10 µM for the second. The first is the more potent here.

First: CC(=O)N1CCC(Nc2cc(C(=O)NC[C@H](O)CN3CCc4cnccc4C3)ncn2)CC1 [Compound 2-17, (S)-6-((1-acetylpiperidin-4-yl)amino)-N-(3-(3,4-dihydro-2,6-naphthyridin-2(1H)-yl)-2-hydroxypropyl)pyrimidine-4-carboxamide]
Second: CC(=O)N1CCC(Nc2cc(C(=O)NC[C@H](O)CN3CCc4ccncc4C3)ncn2)CC1 [Compound 2-23, (S)-6-((1-acetylpiperidin-4-yl)amino)-N-(3-(3,4-dihydro-2,7-naphthyridin-2(1H)-yl)-2-hydroxypropyl)pyrimidine-4-carboxamide]
The IC50 of the first is lower: 0.101 to 1 µM for the first, 1 to 10 µM for the second.

CC(=O)N1CCC(Nc2cc(C(=O)NC[C@H](O)CN3CCc4cnccc4C3)ccn2)CC1 [Compound 2-18] and CC(=O)N1CCC(Nc2cc(C(=O)NC[C@H](O)CN3CCc4ccncc4C3)ccn2)CC1 [Compound 2-19, (S)-2-((1-acetylpiperidin-4-yl)amino)-N-(3-(3,4-dihydro-2,7-naphthyridin-2(1H)-yl)-2-hydroxypropyl)isonicotinamide] fall in the same range of IC50: 0.101 to 1 µM for the first, 0.101 to 1 µM for the second.

CC(=O)N1CCC(Nc2cc(C(=O)NC[C@H](O)CN3CCc4ncccc4C3)ccn2)CC1 [Compound 2-20, (S)-2-((1-acetylpiperidin-4-yl)amino)-N-(3-(7,8-dihydro-1,6-naphthyridin-6(5H)-yl)-2-hydroxypropyl)isonicotinamide] and CC(=O)N1CCC(Nc2cc(C(=O)NC[C@H](O)CN3CCc4cccnc4C3)ccn2)CC1 [Compound 2-21, (S)-2-((1-acetylpiperidin-4-yl)amino)-N-(3-(5,6-dihydro-1,7-naphthyridin-7(8H)-yl)-2-hydroxypropyl)isonicotinamide] fall in the same range of IC50: 0.101 to 1 µM for the first, 0.101 to 1 µM for the second.

First: O=C(NC[C@H](O)CN1CCc2ccncc2C1)c1cc(NC2COC2)ncn1 [Compound 2-24]
Second: Cn1cc2c(n1)CCN(C[C@@H](O)CNC(=O)c1cc(NC3COC3)ncn1)C2 [Compound 3-27]
The IC50 of the first is lower: 1 to 10 µM for the first, greater than 10 µM for the second. The first is the more potent here.

O=C(COc1cccc2cccnc12)NCC(O)CN1CCc2nc[nH]c2C1 (centres unmarked) [Compound 3-10, N-(2-hydroxy-3-{3H,4H,5H,6H,7H-imidazo[4,5-c]pyridin-5-yl}propyl)-2-(quinolin-8-yloxy)acetamide] and O=C(NC[C@H](O)CN1CCc2[nH]cnc2C1)c1cc(NC2COC2)ncn1 [Compound 3-38, (S)—N-(3-(6,7-dihydro-1H-imidazo[4,5-c]pyridin-5(4H)-yl)-2-hydroxypropyl)-6-(oxetan-3-ylamino)pyrimidine-4-carboxamide] cannot be ordered by IC50: greater than 10 µM for the first, greater than 10 µM for the second.

Compared with CC(=O)N1CC(Nc2cc(C(=O)NC[C@H](O)CN3CCc4[nH]nc(-c5ccccc5)c4C3)ncn2)C1 [Compound 3-11, (S)-6-((1-acetylazetidin-3-yl)amino)-N-(2-hydroxy-3-(3-phenyl-6,7-dihydro-1H-pyrazolo[4,3-c]pyridin-5(4H)-yl)propyl)pyrimidine-4-carboxamide], CC(=O)N1CCC(Nc2cc(C(=O)NC[C@H](O)CN3CCc4[nH]nc(-c5ccccc5)c4C3)ncn2)CC1 [Compound 3-12, (S)-6-((1-acetylpiperidin-4-yl)amino)-N-(2-hydroxy-3-(3-phenyl-6,7-dihydro-1H-pyrazolo[4,3-c]pyridin-5(4H)-yl)propyl)pyrimidine-4-carboxamide] is higher in IC50: 1 to 10 µM for the first, greater than 10 µM for the second. The first is the more potent here.

O=C(NC[C@H](O)CN1CCc2[nH]nc(-c3ccccc3)c2C1)c1cc(NC2COC2)ncn1 [Compound 3-17, (S)—N-(2-hydroxy-3-(3-phenyl-6,7-dihydro-1H-pyrazolo[4,3-c]pyridin-5(4H)-yl)propyl)-6-(oxetan-3-ylamino)pyrimidine-4-carboxamide] and Cc1nc2c([nH]1)CCN(C[C@@H](O)CNC(=O)c1cc(NC3COC3)ncn1)C2 [Compound 3-41] cannot be ordered by IC50: greater than 10 µM for the first, greater than 10 µM for the second.

Compared with CC(=O)N1CCC(Nc2cc(C(=O)NC[C@H](O)CN3CCc4[nH]ncc4C3)ccn2)CC1 [Compound 3-21], CC(=O)N1CCC(Nc2cc(C(=O)NC[C@H](O)CN3CCc4cn[nH]c4C3)ccn2)CC1 [Compound 3-50] is higher in IC50: 1 to 10 µM for the first, greater than 10 µM for the second. The first is the more potent here.

CC(=O)N1CCC(Nc2cc(C(=O)NC[C@H](O)CN3CCc4c(ncn4C)C3)ccn2)CC1 [Compound 3-22, (S)-2-((1-acetylpiperidin-4-yl)amino)-N-(2-hydroxy-3-(1-methyl-6,7-dihydro-1H-imidazo[4,5-c]pyridin-5(4H)-yl)propyl)isonicotinamide] and CC(=O)N1CCC(Nc2cc(C(=O)NC[C@H](O)CN3CCc4ncn(C)c4C3)ccn2)CC1 [Compound 3-24, (S)-2-((1-acetylpiperidin-4-yl)amino)-N-(2-hydroxy-3-(3-methyl-6,7-dihydro-3H-imidazo[4,5-c]pyridin-5(4H)-yl)propyl)isonicotinamide] cannot be ordered by IC50: greater than 10 µM for the first, greater than 10 µM for the second.

First: CC(=O)N1CC(Nc2cc(C(=O)NC[C@H](O)CN3CCc4[nH]ncc4C3)ncn2)C1 [Compound 3-23]
Second: CC(=O)N1CC(Nc2cc(C(=O)NC[C@H](O)CN3CCc4cn[nH]c4C3)ncn2)C1 [Compound 3-44]
The IC50 of the first is lower: 1 to 10 µM for the first, greater than 10 µM for the second. The first is the more potent here.

Cn1cnc2c1CN(C[C@@H](O)CNC(=O)c1cc(NC3COC3)ncn1)CC2 [Compound 3-26, (S)—N-(2-hydroxy-3-(3-methyl-6,7-dihydro-3H-imidazo[4,5-c]pyridin-5(4H)-yl)propyl)-6-(oxetan-3-ylamino)pyrimidine-4-carboxamide] and Cn1cnc2c1CCN(C[C@@H](O)CNC(=O)c1cc(NC3COC3)ncn1)C2 [Compound 3-28] cannot be ordered by IC50: greater than 10 µM for the first, greater than 10 µM for the second.

CC(=O)N1CC(Nc2cc(C(=O)NC[C@H](O)CN3CCc4[nH]cnc4C3)ncn2)C1 [Compound 3-33, (S)-6-((1-acetylazetidin-3-yl)amino)-N-(3-(6,7-dihydro-1H-imidazo[4,5-c]pyridin-5(4H)-yl)-2-hydroxypropyl)pyrimidine-4-carboxamide] and CC(=O)N1CCC(Nc2cc(C(=O)NC[C@H](O)CN3CCc4[nH]cnc4C3)ncn2)CC1 [Compound 3-34, (S)-6-((1-acetylpiperidin-4-yl)amino)-N-(3-(6,7-dihydro-1H-imidazo[4,5-c]pyridin-5(4H)-yl)-2-hydroxypropyl)pyrimidine-4-carboxamide] cannot be ordered by IC50: greater than 10 µM for the first, greater than 10 µM for the second.

CC(=O)N1CCC(Nc2cc(C(=O)NC[C@H](O)CN3CCc4c(ncn4C)C3)ncn2)CC1 [Compound 3-35, (S)-6-((1-acetylpiperidin-4-yl)amino)-N-(2-hydroxy-3-(1-methyl-6,7-dihydro-1H-imidazo[4,5-c]pyridin-5(4H)-yl)propyl)pyrimidine-4-carboxamide] and CC(=O)N1CC(Nc2cc(C(=O)NC[C@H](O)CN3CCc4c(ncn4C)C3)ncn2)C1 [Compound 3-45] cannot be ordered by IC50: greater than 10 µM for the first, greater than 10 µM for the second.

CC(=O)N1CCC(Nc2cc(C(=O)NC[C@H](O)CN3CCc4[nH]cnc4C3)ccn2)CC1 [Compound 3-36, (S)-2-((1-acetylpiperidin-4-yl)amino)-N-(3-(6,7-dihydro-1H-imidazo[4,5-c]pyridin-5(4H)-yl)-2-hydroxypropyl)isonicotinamide] and CC(=O)N1CCC(Nc2cc(C(=O)NC[C@H](O)CN3CCc4nc(C)[nH]c4C3)ccn2)CC1 [Compound 3-54] cannot be ordered by IC50: greater than 10 µM for the first, greater than 10 µM for the second.

Cn1ncc2c1CCCN2C[C@@H](O)CNC(=O)c1cc(NC2COC2)ncn1 [Compound 3-40] and CC(=O)N1CC(Nc2cc(C(=O)NC[C@H](O)CN3CCCc4c3cnn4C)ncn2)C1 [Compound 3-46] cannot be ordered by IC50: greater than 10 µM for the first, greater than 10 µM for the second.

CC(=O)N1CC(Nc2cc(C(=O)NC[C@H](O)CN3CCc4[nH]c(C)nc4C3)ncn2)C1 [Compound 3-47] and CC(=O)N1CCC(Nc2cc(C(=O)NC[C@H](O)CN3CCc4cn[nH]c4C3)ncn2)CC1 [Compound 3-51] cannot be ordered by IC50: greater than 10 µM for the first, greater than 10 µM for the second.

CC(=O)N1CCC(Nc2cc(C(=O)NC[C@H](O)CN3CCc4c(cnn4C)C3)ccn2)CC1 [Compound 3-52] and CC(=O)N1CCC(Nc2cc(C(=O)NC[C@H](O)CN3CCc4nn(C)cc4C3)ccn2)CC1 [Compound 3-53] fall in the same range of IC50: 1 to 10 µM for the first, 1 to 10 µM for the second.

CC(=O)N1CCC(Nc2cc(C(=O)NC[C@H](O)CN3CCc4c(cnn4C)C3)ncn2)CC1 [Compound 3-56] and CC(=O)N1CCC(Nc2cc(C(=O)NC[C@H](O)CN3CCc4nn(C)cc4C3)ncn2)CC1 [Compound 3-57] cannot be ordered by IC50: greater than 10 µM for the first, greater than 10 µM for the second.
